Results reported in patent US20230278983A1, “INDOLE DERIVATIVES AND USES THEREOF FOR TREATING A CANCER” (Universite Claude Bernard Lyon 1, priority 2020, published 2023).

target: CK2 (Homo sapiens (Human), UniProt P68400); assay: Radiometric CK2 kinase assay; format: biochemical; conditions: not given
Sequence (P68400 whole entry): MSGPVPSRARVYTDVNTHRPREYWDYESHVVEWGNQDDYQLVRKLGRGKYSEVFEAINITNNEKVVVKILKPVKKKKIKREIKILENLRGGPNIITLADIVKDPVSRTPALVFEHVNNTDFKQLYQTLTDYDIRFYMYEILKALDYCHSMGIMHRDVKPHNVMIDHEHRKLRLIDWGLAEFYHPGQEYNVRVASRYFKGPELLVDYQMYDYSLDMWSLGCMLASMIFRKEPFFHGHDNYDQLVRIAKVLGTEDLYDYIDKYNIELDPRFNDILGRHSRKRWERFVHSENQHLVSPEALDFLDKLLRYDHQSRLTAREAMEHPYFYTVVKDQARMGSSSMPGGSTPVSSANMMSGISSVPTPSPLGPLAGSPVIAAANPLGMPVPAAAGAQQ

SMILES	IC50
CCOC(=O)c1[nH]c2ccc(F)cc2c1-c1cn(CC2CCN(CCNS(=O)(=O)c3ccc(Cl)cc3)CC2)nn1 [AB401, Ethyl 3-(1-((1-(2-((4-chlorophenyl)sulfonamido)ethyl)piperidin-4-yl)methyl)-1H-1,2,3-triazol-4-yl)-5-fluoro-1H-indole-2-carboxylate]	980 nM
Cc1noc(C)c1-c1ccc(S(=O)(=O)NCCN2CCC(Cn3cc(-c4c(C(=O)OCC(C)C)[nH]c5ccc(F)cc45)nn3)CC2)cc1 [AB1130, isobutyl 3-(1-((1-(2-((4-(3,5-dimethylisoxazol-4-yl)phenyl)sulfonamido)ethyl)piperidin-4-yl)methyl)-1H-1,2,3-triazol-4-yl)-5-fluoro-1H-indole-2-carboxylate]	49 nM
CC(C)COC(=O)c1[nH]c2ccc(F)cc2c1-c1cn(CC2CCN(CCNS(=O)(=O)c3ccc(OC(F)(F)F)cc3)CC2)nn1 [AB912, isobutyl 5-fluoro-3-(1-((1-(2-((4-(trifluoromethoxy)phenyl)sulfonamido)ethyl)piperidin-4-yl)methyl)-1H-1,2,3-triazol-4-yl)-1H-indole-2-carboxylate]	300 nM
CCc1ccc(S(=O)(=O)NCCN2CCC(Cn3cc(-c4c(C(=O)OC(C)C)[nH]c5ccc(F)cc45)nn3)CC2)cc1 [AB577, Isopropyl 3-(1-((1-(2-((4-ethylphenyl)sulfonamido)ethyl)piperidin-4-yl)methyl)-1H-1,2,3-triazol-4-yl)-5-fluoro-1H-indole-2-carboxylate]	2300 nM
CCOC(=O)c1[nH]c2ccc(Cl)cc2c1-c1cn(CC2CCN(CCNS(=O)(=O)c3ccc(C(C)C)cc3)CC2)nn1 [AB582, Ethyl 5-chloro-3-(1-((1-(2-((4-isopropylphenyl)sulfonamido)ethyl)piperidin-4-yl)methyl)-1H-1,2,3-triazol-4-yl)-1H-indole-2-carboxylate]	1250 nM
CCOC(=O)c1[nH]c2ccc(Cl)cc2c1-c1cn(CC2CCN(CCNS(=O)(=O)c3ccc(C(F)(F)F)cc3)CC2)nn1 [AB550, Ethyl 5-chloro-3-(1-((1-(2-((4-(trifluoromethyl)phenyl)sulfonamido)ethyl)piperidin-4-yl)methyl)-1H-1,2,3-triazol-4-yl)-1H-indole-2-carboxylate]	2240 nM
CC(=O)c1[nH]c2ccc(F)cc2c1-c1cn(CC2CCN(CCNS(=O)(=O)c3ccc(-c4ccccc4O)cc3)CC2)nn1 [AB1450, N-(2-(4-((4-(2-acetyl-5-fluoro-1H-indol-3-yl)-1H-1,2,3-triazol-1-yl)methyl)piperidin-1-yl)ethyl)-2′-hydroxy-[1,1′-biphenyl]-4-sulfonamide]	49 nM

same assay, conditions: compound at 0.10 μM; ATP 10 μM

SMILES	inhibition at 0.1 µM
CC(C)CC(=O)c1[nH]c2ccc(F)cc2c1-c1cn(CC2CCN(CCNS(=O)(=O)c3ccc(-c4cccnc4Cl)cc3)CC2)nn1 [AB1284, 4-(2-chloropyridin-3-yl)-N-(2-(4-((4-(5-fluoro-2-(3-methylbutanoyl)-1H-indol-3-yl)-1H-1,2,3-triazol-1-yl)methyl)piperidin-1-yl)ethyl)benzenesulfonamide]	15%

same assay, conditions: compound at 1 μM; ATP 10 μM

SMILES	inhibition at 1 µM
CC(C)COC(=O)c1[nH]c2ccc(F)cc2c1-c1cn(CC2CCN(Cc3ccc(Oc4ccccc4)c(C(C)C)c3)CC2)nn1 [AB697, Isobutyl 5-fluoro-3-(1-((1-(3-isopropyl-4-phenoxybenzyl)piperidin-4-yl)methyl)-1H-1,2,3-triazol-4-yl)-1H-indole-2-carboxylate]	16%
CC(C)CCOC(=O)c1[nH]c2ccc(F)cc2c1-c1cn(CC2CCN(CCNS(=O)(=O)c3ccc(C(C)C)cc3)CC2)nn1 [AB664, Isopentyl 5-fluoro-3-(1-((1-(2-((4-isopropylphenyl)sulfonamido)ethyl)piperidin-4-yl)methyl)-1H-1,2,3-triazol-4-yl)-1H-indole-2-carboxylate]	15%
CCc1ccc(S(=O)(=O)NCCN2CCC(Cn3cc(-c4c(C(=O)NCC(C)C)[nH]c5ccc(F)cc45)nn3)CC2)cc1 [AB651, 3-(1-((1-(2-((4-Ethylphenyl)sulfonamido)ethyl)piperidin-4-yl)methyl)-111-1,2,3-triazol-4-yl)-5-fluoro-N-isobutyl-1H-indole-2-carboxamide]	5%
